Consider 7 compounds from paper PMC12009420, “Dynamically chiral phosphonic acid-type metallo-β-lactamase inhibitors” (Communications Chemistry, 2025).

As usually defined, the Ki is the equilibrium dissociation constant of an inhibitor or competing ligand from its target. The IC50 is the concentration needed to halve the response being measured. High values mean weaker potency in that assay, low ones greater potency in that assay. As a reminder, the CC50 is the concentration that lowers cell viability or growth by half.

Data set [1] addresses VIM-2 (Escherichia coli, UniProt Q5U7L7). Kind of data set: Enzymatic metallo-β-lactamase assay on purified VIM-2. The settings on record: for Ki: approximated from Dixon plots (1/v vs [I]) at one constant substrate concentration, ± SE, read-out: Estimated inhibition constant Ki VIM-2; for logIC50 VIM-2: log of IC50, ± SEM of logIC50; for IC50: purified enzyme 1 nM, nitrocefin 15 μM, pH 7.2, 25 °C. Format: biochemical. Here is the method: (§1) A few inhibitors were tested up to 1600 μM to ensure nearly complete inhibition. Solutions of 100 μL consisting of buffer, purified enzyme (1 nM for GIM-1 and VIM-2, 5 nM for NDM-1), inhibitor and reporter substrate nitrocefin (15 μM for VIM-2, 2 μM for GIM-1) or imipenem (30 μM for NDM-1) were incubated in triplicates on a 96 well plate for 5 min at 25 °C. Buffer solution consisted of 50 mM HEPES pH 7.2, 50 μM ZnSO4 and 0.4 mg/ml bovine serum albumine. Inhibitors were dissolved in DMSO but diluted to assure <2% DMSO in measured assay. Absorbance was measured at 482 nm (nitrocefin) and 300 nm (imipenem) on a SpectraMax M4 spectrophotometer. The initial velocity at each inhibitor concentration was analyzed in GraphPad Prism v9.3.1 and fitted to dose-response curves by non-linear regression (log [inhibitor] vs response) used to calculate IC50 (Supplementary Tables S2–5).

The target of data set [2] is T1, GIM-1 (Pseudomonas aeruginosa, UniProt Q704V1). Kind of data set: Enzymatic metallo-β-lactamase assay on purified GIM-1. Format: biochemical. Particulars: for logIC50 GIM-1: log of IC50, ± SEM of logIC50; for IC50: purified enzyme 1 nM, nitrocefin 2 μM, pH 7.2, 25 °C. Here is the method: as §1
The target in data set [3] is NDM-1 (Klebsiella pneumoniae, UniProt C7C422). Kind of data set: Enzymatic metallo-β-lactamase assay on purified NDM-1. It is filed as biochemical. Particulars: for Ki: approximated from Dixon plots (1/v vs [I]) at one constant substrate concentration, ± SE, read-out: Estimated inhibition constant Ki NDM-1; for logIC50 NDM-1: log of IC50, ± SEM of logIC50; for IC50: purified enzyme 5 nM, imipenem 30 μM, pH 7.2, 25 °C. How it is done:
as §1

Data set [4] is described as follows: MTT cytotoxicity assay. Format: cell-based. The settings on record: human, HepG2 cells. Here is the method:
Cytotoxic activity of the compounds was measured through the MTT colorimetric assay as previously described[60] using the Colorimetric (MTT) Kit for Cell Survival and Proliferation (Merck/Millipore; Darmstadt, Germany). HepG2 cells (human hepatocellular carcinoma cell line) were kept in penicillin/streptomycin-free medium overnight and then they were treated with the compounds for 24 h. Subsequently, the MTT reagent was added to the cells and after 3 h of incubation, MTT-derived formazan crystals were solubilized in acidified isopropanol (0.1 mL isopropanol with 0.04 N HCl). Absorbance was measured with multiscan spectrophotometer (Thermo Fisher Scientific) at 530 nm test and 630 nm reference wavelengths. Cell viability was expressed as the percentage of viable, untreated cells. CC50 values were determined with GraphPad Prism software (v9.3.1) and adjusted to dose-response curves by non-linear regression (Supplementary Table S7).
8. Cytotoxocity against HepG2 cells
Table S7. CC50 values and viability curves of metallo-β-lactamase inhibitors tested on HepG2 […]
cells. […]
range. Data are shown as % via bility values ± SEM (n=4). Calculations were done using […]
Inhibitors CC50 (μM) HepG2 […]

A short description of data set [5]: Long term stability in buffer with 2.5% DMSO (LC-MS). It is filed as physicochemical. The settings on record: 20 mM KPO4, 0.1 mM ZnCl2, pH 7.0 + 2.5% DMSO; LC-MS 254 nm. The text has this:
Reagents, reactants, solvents and drying agents for synthesis, work-up and purification were purchased from commercial vendors (Sigma-Aldrich, VWR, Merck, Fluorochem, Thermo Fisher Scientific, Solveco), and if not stated otherwise they were used without further purification. Reactions and long term stability of the final compounds in buffer were monitored using LC-MS (Agilent 1260 Infinity II) equipped with an ESI-Q detector (Infinitylab LC-MSD) using Agilent InfinityLab Poroshell 120 C18 columns (2.7 μm, ϕ 2.1 mm L 50 mm or 2.7 μm, ϕ 4.6 mm L 50 mm). The intermediates were purified using VWR silica gel 60 (40–63 μm) with a Biotage Isolera One flash column chromatography instrument. The final products were purified with preparative RP-HPLC (VWR LaPrep P110) with single wavelength detection (254 nm), using a Kinetex C8 column (5 μm, 100 Å, ϕ 21.2 mm L 250 mm) and gradients of CH3CN/H2O + 0.1% formic acid as the mobile phase at a 10 mL/min flow rate. Analytical HPLC data were acquired on a VWR LaChrome ELITE system using an ACE3 C8 (3 μm, 300 Å, ϕ 3.0 mm L 100 mm) or a Kinetex C18 columns (5 μm, 100 Å, ϕ 3.0 mm L 150 mm). NMR spectra were recorded on a Varian Agilent MR400-DD2 400 MHz spectrometer equipped with a OneNMR probe, Bruker Avance Neo 500 MHz spectrometer equipped with a cryogenic TXO probe, or a Bruker Avance Neo 600 MHz spectrometer equipped with a TCI cryogenic probe. The chemical shifts are reported using the residual solvent signal as an indirect reference to TMS.
4. Long term stability of the final compounds in buffer with 2.5% DMSO
The long term stability of the final compounds in buffer (20 mM KPO4, 0.1 mM ZnCl2, pH 7.0 + 2.5% DMSO) were monitored using LC-MS (Agilent 1260 Infinity II) equipped with an ESI-Q detector (Infinitylab LC-MSD) using Agilent InfinityLab Poroshell 120 C18 column (2.7 μm, ϕ 4.6 mm L 50 mm) at 254 nm with a 7 min long gradient method (5% to 95% CH3CN) of CH3CN/H2O + 0.1% formic acid as the mobile phase at a 1.0 mL/min flow rate. The samples were measured right after dissolving them in buffer, and after 1 month of keeping the same samples dissolved in the same buffer. The main peaks (> 95%) and impurities with > 1% are […]
Figure S14. Compound 5a right after dissolving it in buffer.
Figure S15. Compound 5a kept in buffer for 1 month. […]

The target of data set [6] is T1, GIM-1. Kind of data set: Enzymatic metallo-β-lactamase assay on purified GIM-1. It is filed as biochemical. Particulars: approximated from Dixon plots (1/v vs [I]) at one constant substrate concentration; ± SE; read-out: Estimated inhibition constant Ki GIM-1.
Setting [7] is: HepG2, MTT, read-out: CC50 (in viability curve).
Where [8] appears, read: MTT, 0.0025 mM - 1mM concentration range, read-out: Cytotoxicity CC50 HepG2.

Read-outs that look alike come from different tables or passages of the source. Some results are limits rather than exact numbers.

Sequence of NDM-1 (C7C422 29-270, looked up, species assumed): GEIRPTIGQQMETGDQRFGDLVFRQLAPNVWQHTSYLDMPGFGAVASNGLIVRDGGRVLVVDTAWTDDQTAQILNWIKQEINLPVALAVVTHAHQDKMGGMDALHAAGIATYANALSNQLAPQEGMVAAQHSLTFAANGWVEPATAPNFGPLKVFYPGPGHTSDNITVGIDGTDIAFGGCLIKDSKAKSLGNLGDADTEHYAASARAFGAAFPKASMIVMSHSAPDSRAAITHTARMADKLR
T1 sequence (Q704V1 entry or part of it): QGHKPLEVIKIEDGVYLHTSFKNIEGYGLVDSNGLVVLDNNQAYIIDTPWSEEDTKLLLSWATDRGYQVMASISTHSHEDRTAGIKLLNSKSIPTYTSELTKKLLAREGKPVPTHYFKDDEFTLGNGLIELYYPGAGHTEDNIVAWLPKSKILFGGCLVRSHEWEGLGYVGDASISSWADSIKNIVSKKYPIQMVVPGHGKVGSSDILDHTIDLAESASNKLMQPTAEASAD

On to `O=C(NC(c1ccccc1O)P(=O)(O)O)c1ccsc1` (stereo not drawn) [5b], for which, in data set [1], the Ki was 112 ± 11 µM, the “logIC50 VIM-2” value is on record as 2.10 ± 0.08 μM and it took 124 µM to reach half-maximal inhibition (IC50). In data set [2], the “logIC50 GIM-1” value turned out to be 2.37 ± 0.21 μM and the IC50 is 236 µM. In addition, in data set [3], the Ki is 451 ± 57 µM, the “logIC50 NDM-1” value is given as 1.99 ± 0.13 log10(IC50/μM) and the concentration for half-maximal inhibition (IC50) worked out at 97 µM. The CC50 at 24 h in data set [4] (setting [7]) worked out at 1800 µM. In addition, the half-maximal cytotoxic concentration (CC50) at 24 h in data set [4] (setting [8]) worked out at 1830 µM. For the same compound, in data set [5], the “main peak Area% kept in buffer for 1 month” value (shortened to “main peak Area% kept”) is reported as 95.03% and the “main peak Area% right after dissolving in buffer” value (“main peak Area% right” for short) was determined as 95.46%. The Ki in data set [6] is 162 ± 21 µM.
Regarding `O=C(NC(c1ccccc1O)P(=O)(O)O)c1ccccc1` (stereo not drawn) [5h], in data set [1], the inhibition constant Ki is 85 ± 12 µM, the “logIC50 VIM-2” value was 1.74 ± 0.05 μM and 55 µM corresponded to half-maximal inhibition (IC50). In addition, in data set [2], the “logIC50 GIM-1” value was 1.54 ± 0.13 μM and inhibition was half-maximal at 35 µM (IC50). In data set [3], the inhibitory constant (Ki) was 363 ± 86 µM, the “logIC50 NDM-1” value is 1.93 ± 0.09 log10(IC50/μM) and the IC50 is 85 µM. Also, the half-maximal cytotoxic concentration (CC50) at 24 h in data set [4] (setting [7]) is above 1000 µM. Besides, in data set [4] (setting [8]), the half-maximal cytotoxic concentration (CC50) at 24 h was above 1000 µM. In data set [5], the “main peak Area% kept” value is listed as 95.39% and the “main peak Area% right” value turned out to be 95.97%. The inhibitory constant (Ki) in data set [6] was 118 ± 20 µM.
With `O=C(Cc1cc2ccccc2s1)NC(c1ccccc1O)P(=O)(O)O` (stereo not drawn) [5k], in data set [1], the inhibition constant Ki is 119 ± 13 µM, the “logIC50 VIM-2” value is 1.71 ± 0.07 μM and the IC50 was found to be 51 µM. Further, in data set [2], the “logIC50 GIM-1” value was found to be 1.90 ± 0.08 μM and the IC50 came out at 80 µM. For the same compound, in data set [3], the inhibition constant (Ki) is 262 ± 41 µM, the “logIC50 NDM-1” value is recorded as 1.81 ± 0.11 log10(IC50/μM) and it took 65 µM to reach half-maximal inhibition (IC50). Further, in data set [4] (setting [7]), the CC50 at 24 h amounted to 5600 µM. Also, the CC50 at 24 h in data set [4] (setting [8]) came to 5610 µM. In addition, in data set [5], the “main peak Area% kept” value was found to be 98.27% and the “main peak Area% right” value was determined as 98.10%. In addition, the Ki in data set [6] is 189 ± 76 µM.
With `O=C(Cc1ccccc1)NC(c1ccccc1O)P(=O)(O)O` (stereo not drawn) [5m], the inhibition constant Ki in data set [1] was 74 ± 7 µM; in data set [6], 213 ± 22 µM. In data set [1], the “logIC50 VIM-2” value came out at 1.87 ± 0.35 μM. Also, the IC50 in data set [1] is 74 µM; in data set [2], 121 µM. Besides, the “logIC50 GIM-1” value in data set [2] is reported as 2.08 ± 0.53 μM. For the same compound, the CC50 at 24 h in data set [4] (setting [7]) and in data set [4] (setting [8]) was above 1000 µM each time. Further, the “main peak Area% right” value in data set [5] is recorded as 96.96%.
In the case of `O=C(NC(c1ccccc1O)P(=O)(O)O)c1cccs1` (stereo not drawn) [5a], in data set [1], the inhibition constant Ki is 36 ± 6 µM, the “logIC50 VIM-2” value stood at 1.85 ± 0.07 μM and the IC50 turned out to be 71 µM. Besides, in data set [2], the “logIC50 GIM-1” value is listed as 1.30 ± 0.08 μM and the IC50 is 20 µM. Also, in data set [3], the Ki was 617 ± 95 µM, the “logIC50 NDM-1” value is 2.34 ± 0.09 log10(IC50/μM) and the half-inhibitory concentration (IC50) was 217 µM. In addition, in data set [4] (setting [7]), the CC50 at 24 h was 4500 µM. Further, in data set [4] (setting [8]), the 50% cytotoxic concentration (CC50) at 24 h worked out at 4550 µM. For the same compound, in data set [5], the “main peak Area% kept” value worked out at 95.67% and the “main peak Area% right” value amounted to 95.87%. For the same compound, the Ki in data set [6] is 144 ± 36 µM.
Turning to `O=C(Cc1csc2ccccc12)NC(c1ccccc1O)P(=O)(O)O` (stereo not drawn) [5l], in data set [1], the inhibition constant Ki is 39 ± 5 µM, the “logIC50 VIM-2” value was 1.42 ± 0.18 μM and the concentration for half-maximal inhibition (IC50) is 26 µM. Besides, in data set [2], the “logIC50 GIM-1” value is 1.71 ± 0.07 μM and half-maximal inhibition (IC50) was put at 51 µM. Further, in data set [3], the inhibition constant Ki was 411 ± 160 µM, the “logIC50 NDM-1” value is 1.83 ± 0.05 log10(IC50/μM) and inhibition was half-maximal at 67 µM (IC50). In addition, in data set [4] (setting [7]), the cytotoxic concentration (CC50) at 24 h is 3900 µM. Besides, the CC50 at 24 h in data set [4] (setting [8]) is 3910 µM. For the same compound, in data set [5], the “main peak Area% kept” value was 98.10% and the “main peak Area% right” value came to 98.54%. Besides, the Ki in data set [6] is 193 ± 41 µM.
Regarding `O=C(NC(c1ccccc1O)P(=O)(O)O)c1cc2c(s1)CCCC2` (stereo not drawn) [5e], in data set [1], the Ki was 72 ± 7 µM, the “logIC50 VIM-2” value came out at 1.90 ± 0.11 μM and the 50% inhibitory concentration (IC50) was determined as 79 µM. Further, in data set [2], the “logIC50 GIM-1” value came out at 1.73 ± 0.12 μM and the IC50 was 53 µM. In addition, the CC50 at 24 h in data set [4] (setting [7]) was above 1000 µM. Besides, the CC50 at 24 h in data set [4] (setting [8]) is above 1000 µM. In addition, in data set [5], the “main peak Area% kept” value worked out at 98.87% and the “main peak Area% right” value came out at 98.53%. The Ki in data set [6] is 76 ± 5 µM.
